Entries after “also recorded” stand apart in the source; their conditions may differ.
Tests used:
Type in all cases: cell-based
[1] = tested on: MDA-MB-231 cells; assay: Cell growth by Sulphorhodamine B (SRB) assay, MDA-MB-231
Procedure: (§1) Cells were seeded in 24 wells plates at a density of 10^4 cells per well and allowed to adhere for 24 hours. To determine the combination effects of the drugs, cells were treated with 100 nM 1,25 D3 and 10 nM 1-oxo-2-(2,6-dioxopiperidin-3-yl)-4-aminoisoindoline or 1,3-dioxo-2-(2,6-dioxopiperidin-3-3-yl)-4-aminoisoindoline. Each treatment was carried out for up to 7 days, but renewed every 2 days. Cell growth was then determined by Sulphorhodamine B (SRB) assay, measuring absorbance at 550 nm.
as §1, with “per wekk” for “per well”, “and varying doses of” for “and 10 nM”, “or 1,3-dioxo-2-(2,6-dioxopiperidin-3-yl)-4-aminoisoindoline.” for “or 1,3-dioxo-2-(2,6-dioxopiperidin-3-3-yl)-4-aminoisoindoline.”
(§2) After 6 days treatment, cells were seeded in 24 well plates at a density of 1×10^4 cells/well. After 24 h cells were treated with reagents or vehicle for up to six days. Cells were treated for up to 6 days with log doses of Thalidomide (0.1 μM up to 100 μM), pomalidomide and lenalidomide (0 μM up to 10 μM). At the end of each experiment, cells were fixed to the bottom of the well by addition of ice-cold 50% w/v trichloroacetic acid (TCA) to give a final concentration of 10% TCA. Plates were incubated at 4° C. for 30 minutes and then washed with distilled water. Plates were allowed to air-dry at room temperature before staining with 0.4% w/v SRB in 1% v/v acetic acid and incubated for 15 minutes on a shaker. The plates were then extensively washed with 1% acetic acid to remove unbound dye and were again allowed to air-dry at room temperature. Incorporated dye was solubilised with 200 μl […] Tris base. 100 μl aliquots were transferred to a 96 well plate and absorbance at 550 nm was determined

[2] = tested on: MDA-MB-231 cells; assay: Apoptosis protein array and Western blot (p53, p21, p27, claspin, BCL-2); settings: for expression of the anti-apoptotic protein Bcl-2: 1 μM lenalidomide or 100 nM 1,25-D3 alone
Procedure: Cells were lysed in RIPA buffer containing 1% NP40, 0.5% sodium deoxycholate, 0.1% SDS and PBS and lysates containing 300 μg protein were probed with an R and D apoptosis protein array kit according to the manufacturers instructions (R&D catalogue number ARY009). Spots were visualised using the enhanced chemiluminescence Western blotting detection system (ECL, Amersham, N.J., USA). Densitometric analysis was performed using Adobe Photoshop CS2.
To determine the pathways and proteins involved in the increased apoptosis seen with the lenalidomide/1, 25-D3 combination treatment, whole proteins were extracted from cells taken from the different treatments and were used for probing with an apoptosis protein array, according to the manufacturer. FIG. 9 illustrates the effects. […] Cells were also treated with 0.1% DMSO as a control. Cells were lysed with RIPA buffer as described in the materials and methods, and 300 μg of protein from each of the samples was used for probing with the R& D apoptosis array according to the manufacturers instructions. Results are representative of 2 separate arrays performed. The protein array gives a semi quantitative analysis of changes in the key apoptosis and checkpoint pathway proteins. […] All these proteins are well known to be major pro-apoptotic or checkpoint regulatory proteins. […] All theses results were confirmed by Western blot (FIG. 10 (a)) and densitometry plots of the array and western blot bands/dots were carried out to quantitate the changed expression of these proteins (FIG. 10 (b)). Therefore, the increase in pro-apoptotic proteins coupled with a decrease in Bcl-2 may be responsible for the increased apoptosis seen with the combination treatment.
More particularly, FIG. 10 illustrates the effects of co-treatment lenalidomide/1, 25-D3 on p53 activation and p21, p27, claspin, and BCL-2 protein expression in MDA-MB-231 cells. […] Cells were also treated with 0.1% DMSO as a control. Whole proteins were extracted and probed for p53 (serine 15 and serine 392), p21, p27, claspin, and BCL-2, with b-actin as a house-keeping protein.

[3] = tested on: MCF-12A cells; assay: Cell growth by Sulphorhodamine B (SRB) assay, MCF-12A; settings: for effect on cell growth: single agent, Thalidomide 0.01-100 μM, CC-4047 and lenalidomide 0.001-10 μM, FIG. 6B
Procedure: Cells were seeded in 24 wells plates at a density of 10^4 cells per well and allowed to adhere for 24 hours. […] Each treatment was carried out for up to 7 days, but renewed every 2 days. Cell growth was then determined by Sulphorhodamine B (SRB) assay, measuring absorbance at 550 nm.
as §2

[4] = tested on: MCF-7 cells; assay: Cell viability by neutral red assay, MCF-7
Procedure: Cells were seeded in 24 wells plates at a density of 10^4 cells per well and allowed to adhere for 24 hours. […] The drug was renewed every 2 days. Cell viability was then determined by neutral red assay, measuring absorbance at 550 nm.
After 6 days treatment, cells were seeded into 24 well plates at a density of 1×10^4 cells/wells. After 24 h, cells were treated with reagents or vehicle for up to six days. At the end of the incubation period, medium was removed and cells were incubated with neutral red solution (40 μg/ml in phenol red and serum free DMEM) for 2 h at 37° C. After removal of the neutral red solution, wells were rinsed once with 1 ml 4% formal saline containing 0.5% CaCl2. Plates were inverted on paper towel to drain and 200 μl of elution fluid (1% acetic acid in 50% ethanol) was added. Following incubation at room temperature for 30 min with gentle shaking, absorbance at 550 nm was determined

[5] = 1 μM lenalidomide co-treatment with 100 nM 1,25-D3, up to 6 days

Nc1cccc2c1CN(C1CCC(=O)NC1=O)C2=O (centres unmarked) [Lenalidomide, 1-oxo-2-(2,6-dioxopiperidin-3-yl)-4-aminoisoindoline]
inhibition at 10 µM ([1]; Homo sapiens, MDA-MB-231, 144 h, single agent, 10 μM lenalidomide (highest dose), up to 6 days): 28% | minimal concentration giving statistically significant inhibition of growth ([1]; in the presence of 100 nM 1,25 D3, up to 7 days, FIG. 3): 1 µM | inhibition of growth ([1]; single agent, 10 μM lenalidomide (highest dose), up to 6 days): 20% | BCL-2 expression [2, 5]: inhibits BCL-2 expression; also recorded: abolished by the combination | p21, p27 and claspin expression [2, 5]: induces activation | p53 activation (phosphorylation of serine 15 and serine 392) [2, 5]: induces p53 activation | p53 activation (phosphorylation of serine 15 and serine 392) ([2]; 1 μM lenalidomide only, up to 6 days): induces p53 activation | expression of the anti-apoptotic protein Bcl-2 ([2]; up to 6 days): does not affect | proapoptotic protein claspin ([2]; combination of lenalidomide and 1,25D3 versus either agent alone): upregulated by the combination, but not with either agent alone | proapoptotic proteins P21, P27 and P53S392 ([2]; lenalidomide in combination with vitamin D): upregulated | proapoptotic proteins P21, P27 and P53S392 ([2]; lenalidomide on its own): upregulated | effect on cell growth ([3]; up to 6 days): do not Affect | effect on cell growth ([3]; up to 6 days, listed as lenalidomide): no effect | effect on cell viability ([4]; single agent, up to 6 days, Thalidomide 0.01-100 μM, CC-4047 and lenalidomide 0.001-10 μM, FIG. 6A): do not Affect

C=C1/C(=C\C=C2/CCC[C@]3(C)[C@@H]([C@H](C)CCCC(C)(C)O)CC[C@@H]23)C[C@@H](O)C[C@@H]1O [1,25-D3, 1α,25-dihydroxyvitamin D3]
effect on cell growth ([1]; 100 nM 1,25-D3 or 1 μM IMiD alone, up to 6 days): no effect | expression of the anti-apoptotic protein Bcl-2 ([2]; up to 6 days): does not affect | inhibition of growth ([3]; 100 nM 1,25-D3 alone, up to 6 days, FIG. 7B): 55% | IC50 ([3]; 1,25 D3 alone, read-out: dose giving IC50 inhibition): 100 nM | inhibition of viability ([4]; 100 nM 1,25-D3 alone, up to 6 days, FIG. 7A): 40% | sensitivity of cell viability to vitamin D agent treatment ([4]; 1,25 D3 0-100 nM, 7 days, FIG. 1): showed sensitivity

— patent US8841325B2, “Immunomodulatory compounds for the restoration of vitamin D sensitivity in vitamin D resistant tumor cells” (Celgene Corporation, priority 2009, dated 2014)
